Assay results reported in patent US20110217300A1, “Quinazolinone Compounds and Methods of Use Thereof” (priority 2007, published 2011).

Assays:
PACA2 tumor xenografts = experiment: PACA2 tumor xenograft efficacy study (Example 107); format: in vivo, mice; conditions: 3 mg/kg or 12.5 mg/kg intraperitoneally 3x weekly
Description: Six weeks old female athymic nude mice (NCR nu/nu) received from Charles River Laboratory, acclimated to the animal housing facility for one week before initiation of the study. Mice were housed in sterile cages of 4 each with autoclaved bedding, provided with autoclaved food and water ad libitum. Efficacy studies were performed in athymic mice bearing PACA2 tumor xenografts to determine the effect of compound on tumor growth. Tumor cells (1×10^7 PACA2 cells/animal) were inoculated subcutaneously on day 0. Tumor dimensions were measured three times weekly by a digital microcaliper, and tumor volumes were calculated as length×width^2/2. When tumors reached a volume of ˜300 mm^3, mice were randomized into groups and treated 3× weekly (Monday-Wednesday-Friday, followed by a 2-day dosing holiday) intraperitoneally. With either vehicle control or 3 mg/kg and 12.5 mg/kg compound formulated in DMA/PEG400/water (20:40:40). Results are expressed as mean tumor volume±SE. To assess differences in tumor size between groups, student's t test was performed and significance was assessed for p values <0.05. Tumor size was evaluated periodically during treatment at the indicated days post-inoculation. Results are represented as the mean of tumor volume in mm^3±SE of several tumors (n=10) in function of the treatment period. […] (See FIG. 1B).

MIA-PaCa2 xenograft = experiment: Xenograft model; format: in vivo, mice; conditions: MIA-PaCa2, Pancreas; procedures and dosages of Examples 106-108
Description: Six-week old female athymic nude mice (NCR nu/nu; Charles River Laboratory, Wilmington, Mass.) were acclimated to the animal housing facility for at least 1 week before the study. Efficacy studies were performed in athymic mice bearing PACA2 tumor xenografts to determine the effect of compound on tumor growth. Tumor cells (1×10^7 PACA2 cells/animal) were inoculated subcutaneously on day 0. Tumor dimensions were measured by a digital microcaliper, and tumor volumes were calculated as length×width^2/2. […] Results are expressed as mean tumor volume±SE. To assess differences in tumor size between groups, a Mann-Whitney non-parametric t test was performed and significance was assessed for p values <0.05. Tumor size was evaluated periodically during treatment at the indicated days post-inoculation. […]
Six weeks old female athymic nude mice (NCR nu/nu) received from Charles River Laboratory, acclimated to the animal housing facility for one week before initiation of the study. […] Tumor dimensions were measured three times weekly by a digital microcaliper, and tumor volumes were calculated as length×width^2/2. […] Results are expressed as mean tumor volume±SE. To assess differences in tumor size between groups, student's t test was performed and significance was assessed for p values <0.05. Tumor size was evaluated periodically during treatment at the indicated days post-inoculation. […]

## C#CC[C@H](c1nc2cc(Cl)ccc2c(=O)n1Nc1ccccc1)N(CCCN)C(=O)c1cccc(Cl)c1F [Compound 1, N-(3-Amino-propyl)-3-chloro-N—[(R)-1-(7-chloro-4-oxo-3-phenylamino-3,4-dihydro-quinazolin-2-yl)-but-3-ynyl]-2-fluoro-benzamide]
PACA2 tumor xenografts; PACA2 xenograft mice
  tolerability of doses: well-tolerated
PACA2 tumor xenografts; tumors ~300 mm^3 at start, FIG. 1B
  tumor growth compared to the vehicle control group: Significant reductions in tumor growth
MIA-PaCa2 xenograft
  Xenograft Outcome (approximate percent growth inhibition): ~90%
